Data on two molecules can be found in patent US5563176A (priority 1994, dated 1996).

A word on the IC50: it is the concentration needed to halve the response being measured. A word on the half-life: it is how long it takes for the measured level to halve. The MTD is the largest dose that counted as tolerated. A lower MTD goes with poorer tolerability.

≈ marks a conversion by molar mass, not a printed value. Where “and” joins values, the source holds several entries; their conditions need not be identical. Equal values may be shown once. Read-outs that look alike come from different tables or passages of the source.

The subject of data set [1] is HL-60 cells. In words: cells. Type of data set: cell-based, human. Conditions: Homo sapiens, HL-60.
Data set [2] can be described thus: kinetics of the reaction with dilute HCl. The data set is classed as physicochemical. Conditions: illudin M. The source says:
Consistent with the above hypothesis are the results of the kinetics of the reaction of illudin M and dehydroilludin M with dilute HCl. […] In the reaction with dehydroilludin M, no intermediate could be detected by NMR spectroscopy. Presumably it formed too slowly and is too short-lived to be detected.

For data set [3], the system named is Dunning leukemia. The settings on record: NCI DCT; cited from earlier work.
Data set [4] deals with HL60 cells (myeloid). The data set can be described thus: cells. Type of data set: cell-based, human.
Data set [5] deals with 8392 cells (B-cell). The data set can be described thus: cells. Type of data set: cell-based. The settings on record: 2 h, read-out: Two hour IC50.
For data set [6], the system named is MV522 cells. In words: cells. Type of data set: cell-based, human.
Data set [7] concerns HL60 cells. The data set can be described thus: cells. The data set is classed as cell-based. The settings on record: Homo sapiens, HL-60, 48 h, read-out: 48 hour IC50.
Data set [8] has as its system 8392 cells. The data set can be described thus: cells. Type of data set: cell-based. The settings on record: 48 h, read-out: 48 hour IC50.
The subject of data set [9] is MV522. The data set can be described thus: cells. Conditions: Homo sapiens, MV522, 48 h, read-out: 48 hour IC50. Type of data set: cell-based.
The subject of data set [10] is MX-1 mammary carcinoma xenograft. The data set can be described thus: MX-1 human breast tumor xenograft in nude mice. Type of data set: in vivo. The source says:
(§1) Nude mice are implanted subcutaneously (s.c.) by trocar with fragments of MX-1 mammary carcinomas harvested from s.c. growing MX-1 tumors in nude mice hosts. When tumors are approximately 5 mm×5 mm in size (usually about ten days after inoculation), the animals are pair-matched into treatment and control groups. Each group contains 10 tumored mice, each of which is eartagged and followed individually throughout the experiment. The administration of drugs or vehicle begins the day the animals are pair-matched (day 1). The doses, route of drug administration and schedule are selected as appropriate for the study in question, If the maximum tolerated dose (MTD) of an agent is not known, it was determined in an initial dosing experiment in non-tumored mice. In a typical experiment, drugs are given at their MTD and 1/2 MTD doses i.p. on a daily×5 schedule.
The experiment is usually terminated when control tumors reach a size of 2-3 g. Mice are weighed twice weekly, and tumor measurements are taken by calipers twice weekly, starting on day 1. These tumor measurements are converted to mg tumor weight by a well-known formula, and from these calculated tumor weights the termination date can be determined. Upon termination, all mice are weighed, sacrificed, and their tumors excised. Tumors, are weighed, and the mean tumor weight per group is calculated. In this model, the mean treated tumor weight/mean control tumor weight×100% (T/C) is subtracted from 100% to give the tumor growth inhibition (TGI) for each group).
Some drugs cause minor shrinkage in the MX-1 model. With these agents, the final weight of a given tumor is subtracted from its own weight at the start of treatment on day 1. This difference divided by the initial tumor weight is the % shrinkage. A mean % tumor shrinkage can be calculated from data from the mice in a group that experienced MX-1 regressions. If the tumor completely disappears in a mouse, this is considered a complete regression or complete tumor shrinkage.
(§2) HMAF was evaluated against the MX-1 mammary carcinoma xenograft at the MTD of 7.5 mg/kg, and also at 5.0 mg/kg, i.p. daily×5, delivered in 10% cremophor, 20% ethanol and 70% isotonic saline. The 7.5 mg mg/kg dose caused no lethality, or unacceptable weight loss to the nude mice (day 8 weight loss=9.5%). […] The 5.0 mg/kg dose produced 2 complete regressions, and an average 88% tumor shrinkage in the other 8 mice.

A short description of data set [11]: tolerability in nude mice (MX-1 study). Type of data set: in vivo.
Source text: as §1, §2

Data set [12] concerns P388 leukemia. The data set can be described thus: P388 leukemia in mice. Type of data set: in vivo, murine. As for the experimental part: (§3) HMAF was also evaluated against P388 leukemia in mice. The tumor inoculum is prepared by removing ascites fluid containing P388 cells from tumored B6D2F1 mice, centrifuging the cells, and then resuspending the leukemia cells in saline. Mice receive 1×10^6 P388 cells i.p. on day 0. Initial dosing experiments on a daily×5 schedule in B6D2F1 mice established the MTD of HMAF as 7.5 mg/kg. HMAF was tested at doses of 7.5 and 5.0 mg/kg vs. the P388 leukemia model. […] A T/C value of 150 means that treated mice lived 50% longer than the controls. Weight loss at the higher dose was 13% on day 8, again confirming that 7.5 mg/kg is the MTD for this agent on the daily×5 schedule.

A short description of data set [13]: dosing/tolerability in B6D2F1 mice. Type of data set: in vivo. The method, then:
as §3

The test system of data set [14] is B16 melanoma. The data set can be described thus: B16 melanoma in mice. Type of data set: in vivo. The settings on record: same doses as P388.
The test system of data set [15] is B16 melanoma. The data set can be described thus: in vitro activity, B16. Type of data set: cell-based.
For data set [16], the system named is HT-29 human colon tumor. The data set can be described thus: in vitro activity, HT-29. The settings on record: HT-29, HT29. The data set is classed as cell-based.
Data set [17] relates to murine P388 cells. In words: in vitro activity, P388. Type of data set: cell-based.
Data set [18] has as its system MCF-7 human breast tumor. The data set can be described thus: in vitro activity, MCF-7. The data set is classed as cell-based.
Data set [19] deals with human lung adenocarcinoma MV522. Conditions: in vivo.
The test system is the same in data set [20]. The data set can be described thus: animal or person. Conditions: MV522, ip, read-out: life span.

As for `CC1=C2C(=CC(C)(C)C2O)C(=O)[C@](C)(O)C12CC2` (stereo partly shown) [Illudin M, reference compound], in [1], the half-inhibitory concentration (IC50) was 10 nM. Further, in data set [2], the half-life stood at 2.47 h and the “k, pseudo first-order reaction” value is listed as 4.7×10^-3. The “life span of rats with Dunning leukemia” value in [3] is listed as “significantly increased the life span”.

With `CC1=C(CO)C2=C(C)C3(CC3)[C@@](C)(O)C(=O)C2=C1` [6-hydroxymethylacylfulvene], the “toxicity to target tumor cells” value in [4] is “markedly toxic”; in data set [6] (MV522, 2 and 48 hour), “markedly toxic”. Also, the IC50 worked out at 150 ± 11 nM in data set [4] (Homo sapiens, HL-60, 2 h, read-out: Two hour IC50); 7360 nM in [5]; 114 ± 28 nM in [6] (Homo sapiens, MV522, 2 h, read-out: Two hour IC50); 4 ± 1 nM in data set [7]; 76 ± 4 nM in data set [8]; 73 ± 8 nM in data set [9]. Further, the half-maximal inhibitory concentration (IC50) in data set [15] (B16, listed as HMAF) is 4.65 µg/mL and 3.73 µg/mL; in [15] (Mus musculus, B16, B16, read-out: IC50), 3.73 to 4.65 µg/mL (≈ 15.1 to 18.9 µM); in data set [16], 0.05 µg/mL (≈ 0.203 µM); in data set [17] (Mus musculus, P388, P388, read-out: IC50), 0.16 to 0.32 µg/mL (≈ 0.65 to 1.3 µM); in [17] (P388, listed as HMAF) it was 0.165 µg/mL and 0.319 µg/mL; in data set [18] (Homo sapiens, MCF7, MCF-7, read-out: IC50), 0.036 to 0.07 µg/mL (≈ 0.146 to 0.284 µM). Also, the IC50 in data set [18] (MCF-7, listed as HMAF) is 0.036 µg/mL and 0.043 µg/mL. In data set [10] (5.0 mg/kg i.p. daily×5, of 10 mice), the complete regressions worked out at 2. The average tumor shrinkage in data set [10] (5.0 mg/kg i.p. daily×5, other 8 mice) was found to be 88%; in [10] (7.5 mg/kg i.p. daily×5, other 6 mice), 91%. In data set [10] (7.5 mg/kg i.p. daily×5, of 10 mice), this molecule displayed a complete tumor regressions of 4 mice. Besides, the “activity in MX-1 xenograft” value in [10] (in vivo) is “highly active”. The lethality entry in [11] (7.5 mg/kg i.p. daily×5) is listed as “no lethality”. In addition, the weight loss came out at 9.5% in data set [11] (7.5 mg/kg i.p. daily×5, day 8) and 13% in data set [13] (higher dose, day 8, P388 study). The MTD in data set [11] (mouse, in vivo, ip, i.p. daily×5, nude mice) came out at 7.5 mg/kg; in [13] (mouse, in vivo, daily×5, B6D2F1 mice), 7.5 mg/kg. In addition, the “treated/control (T/C)” value in [12] (5.9 mg/kg) was determined as 137; in data set [12] (6.5 mg/kg), 140. Further, the “activity against B16 melanoma in mice” value in data set [14] was “inactive”. Further, in [19], the “efficacy in this model” value is recorded as “markedly increased the life span”. Further, the “life span versus control” value in data set [19] is given as “lived significantly longer”. Also, the “toxic side effects (activity, weight gain, food or water intake)” value in data set [19] is “no evidence of toxic side effects”. Also, in data set [19] (10 mg/kg), the tumor growth response result is “Tumor regression”. Further, the animals alive in [19] (ip, 10 mg/kg) is 2 animals alive, ? cured. In addition, the life span in data set [19] (ip, 10 mg/kg) was 233 ± 18% and 232 ± 20% and > 204%. In [20], the response vs control in vivo at 1 mg/kg came out at 135 ± 10%. Besides, in data set [20], the response vs control in vivo at 5 mg/kg amounted to 154 ± 13%.
